For experiment [1], the target named is T1, SARS-CoV-2 PLpro (nsp3 1564–1878) (Severe acute respiratory syndrome coronavirus 2, UniProt P0DTD1). Description: biochemical. To be noted: low concentration screen, read-out: % of control remaining. Also noted: FRET-quenched peptide (Pro3) cleavage by PLpro, 10 min pre-incubation, slope over 20 min, normalised to no-compound control.
Experiment [2] addresses T1, SARS-CoV-2 PLpro (nsp3 1564–1878). Description: biochemical. More on the design: FRET-quenched peptide (Pro3) cleavage by PLpro, 10 min pre-incubation, slope over 20 min, normalised to no-compound control. The conditions noted are these: high concentration screen, read-out: % of control remaining.

Counter-ions that a name gives are not always drawn. Like-named read-outs stand apart in the source and are kept apart here. Where a SMILES comes first, the peptide text is derived from it. [ ]: non-standard residue; d: D form. Nle = CCCC[C@H](N)C(=O)O

As to `Nc1ncnc2c1nc(N)n2[C@@H]1O[C@H](CO)[C@@H](O)[C@H]1O` [(2R,3R,4S,5R)-2-(6,8-diamino-9H-purin-9-yl)-5-(hydroxymethyl)tetrahydrofuran-3,4-diol], the remaining activity at 1.25 µM in experiment [1] (Well no.=5532) worked out at 106%. In experiment [2] (Well no.=5532), the remaining activity at 3.75 µM amounted to 105%.

Regarding `CC1CNc2c(cccc2S(=O)(=O)N[C@@H](CCCNC(=N)N)C(=O)N2CC[C@@H](C)C[C@@H]2C(=O)O)C1` (stereo partly drawn) [(2R,4R)-1-((2S)-5-{[amino(imino)methyl]amino}-2-{[(3-methyl-1,2,3,4-tetrahydro-8-quinolinyl)sulfonyl]amino}pentanoyl)-4-methyl-2-piperidinecarboxylic acid hydrate], the remaining activity at 1.25 µM in experiment [1] (Well no.=5613) came out at 96%. Besides, the remaining activity at 3.75 µM in experiment [2] (Well no.=5613) was determined as 96.5%.

Regarding `CCCC[C@@H](C=O)NC(=O)[C@H](CC(C)C)NC(=O)[C@H](CC(C)C)NC(C)=O` [(2S)-2-(acetylamino)-N-[(1S)-1-({[(1S)-1-formylpentyl]amino}carbonyl)-3-methylbutyl]-4-methylpentanamide] (Ac-Leu-Leu-[Nle]-aldehyde), the remaining activity at 1.25 µM in experiment [1] (Well no.=5774) is 95.7%. In experiment [2] (Well no.=5774), the remaining activity at 3.75 µM was 95.3%.

Consider `CC(C)C[C@H](NC(=O)[C@@H](O)[C@H](N)Cc1ccc([N+](=O)[O-])cc1)C(=O)O` [(2S,3R)-3-Amino-2-hydroxy-4-(4-nitrophenyl)butanoyl-L-leucine hydrochloride], for which the remaining activity at 1.25 µM in experiment [1] (Well no.=67) was 106%. Moreover, the remaining activity at 3.75 µM in experiment [2] (Well no.=67) is 104%.

For `CCOC(=O)[C@H](CCc1ccccc1)N[C@@H](C)C(=O)N1CCC[C@H]1C(=O)O` [(2Z)-2-butenedioic acid compound with (2S)-1-((2S)-2-{[(1S)-1-(ethoxycarbonyl)-3-phenylpropyl]amino}propanoyl)-2-pyrrolidinecarboxylic acid (1:1)], in experiment [1] (Well no.=5659), the remaining activity at 1.25 µM is 102%. In experiment [2] (Well no.=5659), the remaining activity at 3.75 µM was found to be 101%.

Consider `C/C(Nc1ccccc1)=C1\C(=O)NC(Cc2ccccc2)C1=O` (stereo not shown) [(3E)-3-(1-anilinoethylidene)-5-benzyl-2,4-pyrrolidinedione], for which the remaining activity at 1.25 µM in experiment [1] (Well no.=5686) turned out to be 96.9%. In addition, the remaining activity at 3.75 µM in experiment [2] (Well no.=5686) came to 97.8%.

For the molecule `COc1cc2c(cc1OC)[C@H]1CC(=O)[C@H](CC(C)C)CN1CC2` [(3R,11bR)-3-isobutyl-9,10-dimethoxy-1,3,4,6,7,11b-hexahydro-2H-pyrido[2,1-a]isoquinolin-2-one], the remaining activity at 1.25 µM in experiment [1] (Well no.=5582) is 93.7%. The remaining activity at 3.75 µM in experiment [2] (Well no.=5582) was determined as 98.6%.

Take `C=C[C@]1(C)C[C@@H](OC(=O)CO)[C@]2(C)[C@H](C)CC[C@]3(CCC(=O)[C@H]32)[C@@H](C)[C@@H]1O` [(3aR,4R,5R,7S,8S,9R,9aS,12R)-8-hydroxy-4,7,9,12-tetramethyl-3-oxo-7-vinyldecahydro-4,9a-propanocyclopenta[8]annulen-5-yl 2-hydroxyacetate]: the remaining activity at 1.25 µM in experiment [1] (Well no.=5764) is 97.1%. Further, the remaining activity at 3.75 µM in experiment [2] (Well no.=5764) was 97.7%.

Consider `CCCCCCCCCCCC1N[C@H](C(=O)O)CS1` (stereo partly drawn) [(4R) - 2-Undecyl-4-thiazolidinecarboxylic acid], for which the remaining activity at 1.25 µM in experiment [1] (Well no.=5484) was 104%. Also, the remaining activity at 3.75 µM in experiment [2] (Well no.=5484) came to 106%.

Take `Cc1ccc(CN2C(=O)S/C(=C\c3ccc(Cl)cc3)C2=O)cc1` [(5Z)-5-(4-chlorobenzylidene)-3-(4-methylbenzyl)-1,3-thiazolidine-2,4-dione]: in experiment [1] (Well no.=6027), the remaining activity at 1.25 µM was determined as 94.6%. Besides, the remaining activity at 3.75 µM in experiment [2] (Well no.=6027) was found to be 94.7%.

As to `CC(O)C(O)C1CNc2nc(N)[nH]c(=O)c2N1` [(6R)-5,6,7,8-Tetrahydro-L-biopterin hydrochloride], the remaining activity at 1.25 µM in experiment [1] (Well no.=1383) worked out at 101%. The remaining activity at 3.75 µM in experiment [2] (Well no.=1383) turned out to be 102%.
